Results: PubChem BioAssay AID2060899 (Molecular Pharmacology Branch, DTP, NCI, 2025)
One block for each compound: values may come before it.

Test system: 565726-208-R1-J5-PDC complex spheroids, growth inhibition
Experiment: Anticancer human tumor 565726-208-R1-J5-PDC patient-derived pancreatic adenocarcinoma cell line growth inhibition [RAS]
Settings: for viability, T/C: stronger effect = lower value
Method in brief: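 Tumour cells grown as complex spheroids with HUVEC endothelial cells and mesenchymal stem cells, treated with RAS pathway inhibitor combinations. Each agent spans half-log steps from near clinical Cmax, or 10 microM where Cmax is unknown.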

[1] = curve of first compound, second compound 0.00316 µM
[2] = curve of first compound, second compound 0.01 µM
[3] = curve of first compound, second compound 0.0316 µM
[4] = curve of first compound, second compound 0.1 µM
[5] = curve of first compound, second compound 0.316 µM
[6] = curve of first compound, second compound 1 µM
[7] = second compound 0.00316 µM, first compound 0.00316 µM
[8] = second compound 0.00316 µM, first compound 0.01 µM
[9] = second compound 0.00316 µM, first compound 0.0316 µM
[10] = second compound 0.00316 µM, first compound 0.1 µM
[11] = second compound 0.00316 µM, first compound 0.316 µM
[12] = second compound 0.00316 µM, first compound 1 µM
[13] = second compound 0.01 µM, first compound 0.00316 µM
[14] = second compound 0.01 µM, first compound 0.01 µM
[15] = second compound 0.01 µM, first compound 0.0316 µM
[16] = second compound 0.01 µM, first compound 0.1 µM
[17] = second compound 0.01 µM, first compound 0.316 µM
[18] = second compound 0.01 µM, first compound 1 µM
[19] = second compound 0.0316 µM, first compound 0.00316 µM
[20] = second compound 0.0316 µM, first compound 0.01 µM
[21] = second compound 0.0316 µM, first compound 0.0316 µM
[22] = second compound 0.0316 µM, first compound 0.1 µM
[23] = second compound 0.0316 µM, first compound 0.316 µM
[24] = second compound 0.0316 µM, first compound 1 µM
[25] = second compound 0.1 µM, first compound 0.00316 µM
[26] = second compound 0.1 µM, first compound 0.01 µM
[27] = second compound 0.1 µM, first compound 0.0316 µM
[28] = second compound 0.1 µM, first compound 0.1 µM
[29] = second compound 0.1 µM, first compound 0.316 µM
[30] = second compound 0.1 µM, first compound 1 µM
[31] = second compound 0.316 µM, first compound 0.00316 µM
[32] = second compound 0.316 µM, first compound 0.01 µM
[33] = second compound 0.316 µM, first compound 0.0316 µM
[34] = second compound 0.316 µM, first compound 0.1 µM
[35] = second compound 0.316 µM, first compound 0.316 µM
[36] = second compound 0.316 µM, first compound 1 µM
[37] = second compound 1 µM, first compound 0.00316 µM
[38] = second compound 1 µM, first compound 0.01 µM
[39] = second compound 1 µM, first compound 0.0316 µM
[40] = second compound 1 µM, first compound 0.1 µM
[41] = second compound 1 µM, first compound 0.316 µM
[42] = second compound 1 µM, first compound 1 µM
[43] = curve of first compound, second compound 3.16 µM
[44] = curve of first compound, second compound 10 µM
[45] = second compound 3.16 µM, first compound 0.0316 µM
[46] = second compound 3.16 µM, first compound 0.1 µM
[47] = second compound 3.16 µM, first compound 0.316 µM
[48] = second compound 3.16 µM, first compound 1 µM
[49] = second compound 10 µM, first compound 0.0316 µM
[50] = second compound 10 µM, first compound 0.1 µM
[51] = second compound 10 µM, first compound 0.316 µM
[52] = second compound 10 µM, first compound 1 µM
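Also: spheroids exposed to compounds for seven days before readout.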
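For viability, T/C in this document: 100% = DMSO vehicle control viability.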

IC50 [1]: 460 nM
IC50 [2]: 290 nM
IC50 [3]: > 1000 nM
IC50 [4]: 365 nM
IC50 [5]: > 1000 nM
IC50 [6]: 759 nM
Structure (SMILES): O=C(c1ccc(F)c(F)c1Nc1ccc(I)cc1F)N1CC(O)([C@@H]2CCCCN2)C1 + C=CC(=O)N1CCN(c2nc(OCC3CCCN3C)nc3c(F)c(-c4nc(N)cc(C)c4C(F)(F)F)c(Cl)cc23)C(C)C1
viability, T/C [7]: 105%
viability, T/C [8]: 142%
viability, T/C [9]: 73.3%
viability, T/C [10]: 78.3%
viability, T/C [11]: 58.1%
viability, T/C [12]: 39.1%
viability, T/C [13]: 120%
viability, T/C [14]: 141%
viability, T/C [15]: 88.3%
viability, T/C [16]: 71.3%
viability, T/C [17]: 56.6%
viability, T/C [18]: 30.1%
viability, T/C [19]: 146%
viability, T/C [20]: 174%
viability, T/C [21]: 75.4%
viability, T/C [22]: 82.4%
viability, T/C [23]: 56.4%
viability, T/C [24]: 38.1%
viability, T/C [25]: 138%
viability, T/C [26]: 137%
viability, T/C [27]: 91.1%
viability, T/C [28]: 69.8%
viability, T/C [29]: 60%
viability, T/C [30]: 36.3%
viability, T/C [31]: 154%
viability, T/C [32]: 139%
viability, T/C [33]: 73.1%
viability, T/C [34]: 71.3%
viability, T/C [35]: 56.7%
viability, T/C [36]: 38.9%
viability, T/C [37]: 137%
viability, T/C [38]: 137%
viability, T/C [39]: 82.2%
viability, T/C [40]: 85.9%
viability, T/C [41]: 61.2%
viability, T/C [42]: 50.3%

IC50 (curve of compound): > 10000 nM
Structure (SMILES): CC(C)NCC(C(=O)N1CCN(c2ncnc3c2C(C)CC3O)CC1)c1ccc(Cl)cc1 (stereo unspecified)
viability, T/C (compound 0.0316 µM): 97.9% [middle of 4 runs]
viability, T/C (compound 0.1 µM): 100% [middle of 4 runs]
viability, T/C (compound 1 µM): 88.7% [middle of 4 runs]

IC50 [3]: > 10000 nM
IC50 [4]: > 10000 nM
IC50 [5]: > 10000 nM
IC50 [6]: > 10000 nM
IC50 [43]: 473 nM
IC50 [44]: 1210 nM
Structure (SMILES): CC(C)NCC(C(=O)N1CCN(c2ncnc3c2C(C)CC3O)CC1)c1ccc(Cl)cc1 (stereo unspecified) + C#Cc1c(F)ccc2cc(O)cc(-c3ncc4c(N5CC6CCC(C5)N6)nc(OCC56CCCN5CC(F)C6)nc4c3F)c12
viability, T/C [21]: 85.7%
viability, T/C [22]: 129%
viability, T/C [23]: 96%
viability, T/C [24]: 76%
viability, T/C (second compound 0.0316 µM, first compound 3.16 µM): 80.2%
viability, T/C (second compound 0.0316 µM, first compound 10 µM): 91.4%
viability, T/C [27]: 108%
viability, T/C [28]: 114%
viability, T/C [29]: 80.3%
viability, T/C [30]: 77.3%
viability, T/C (second compound 0.1 µM, first compound 3.16 µM): 88%
viability, T/C (second compound 0.1 µM, first compound 10 µM): 86%
viability, T/C [33]: 104%
viability, T/C [34]: 117%
viability, T/C [35]: 78.1%
viability, T/C [36]: 84.9%
viability, T/C (second compound 0.316 µM, first compound 3.16 µM): 71.9%
viability, T/C (second compound 0.316 µM, first compound 10 µM): 80.5%
viability, T/C [39]: 109%
viability, T/C [40]: 125%
viability, T/C [41]: 76.5%
viability, T/C [42]: 59.5%
viability, T/C (second compound 1 µM, first compound 3.16 µM): 63.4%
viability, T/C (second compound 1 µM, first compound 10 µM): 52.5%
viability, T/C [45]: 101%
viability, T/C [46]: 83.8%
viability, T/C [47]: 50.7%
viability, T/C [48]: 48.4%
viability, T/C (second compound 3.16 µM, first compound 3.16 µM): 38.5%
viability, T/C (second compound 3.16 µM, first compound 10 µM): 34.7%
viability, T/C [49]: 67.8%
viability, T/C [50]: 76.6%
viability, T/C [51]: 57.6%
viability, T/C [52]: 47.1%
viability, T/C (second compound 10 µM, first compound 3.16 µM): 44.5%
viability, T/C (second compound 10 µM, first compound 10 µM): 21.1%

IC50 (compound alone, run of 07/15/2024): > 1000 nM
IC50 (curve of compound): > 1000 nM
Structure (SMILES): C=CC(=O)N1CCN(c2nc(OCC3CCCN3C)nc3c(F)c(-c4nc(N)cc(C)c4C(F)(F)F)c(Cl)cc23)C(C)C1 (stereo unspecified)
viability, T/C (compound 0.1 µM): 104% [middle of 12 runs]

Further lines, the compound ahead of its results:

Structure (SMILES): CC1(C)CCC(Nc2ncc(C(F)(F)F)c(-c3c[nH]c4c(P(C)(C)=O)c(C#N)ccc34)n2)CN1 (stereo unspecified)
viability, T/C (compound 0.003 µM): 51.3% [middle of 4 runs]
viability, T/C (compound 0.00949 µM): 37.9% [middle of 4 runs]
viability, T/C (compound 0.03 µM): 31.7% [middle of 4 runs]
viability, T/C (compound 0.0949 µM): 36.9% [middle of 4 runs]
viability, T/C (compound 0.3 µM): 34.4% [middle of 4 runs]
IC50 (curve of compound): 3.92 nM [middle of 4 runs]

Structure (SMILES): CC1(O)CCCC1n1c(=O)c(C(F)F)cc2cnc(NC3CCN(S(C)(=O)=O)CC3)nc21 (stereo unspecified)
viability, T/C (compound 0.0316 µM): 86.8% [middle of 4 runs]
viability, T/C (compound 0.1 µM): 71.2% [middle of 4 runs]
viability, T/C (compound 1 µM): 71.2% [middle of 4 runs]
viability, T/C (compound 10 µM): 5.9% [middle of 4 runs]
IC50 (curve of compound): 4.5 µM [middle of 4 runs]

Structure (SMILES): Nc1ccn(C2OC(CO)C(O)C2(F)F)c(=O)n1 (stereo unspecified) + C=CC(=O)N1CCN(c2nc(OCC3CCCN3C)nc3c(F)c(-c4nc(N)cc(C)c4C(F)(F)F)c(Cl)cc23)C(C)C1
IC50 [1]: 94.9 nM
IC50 [2]: 93.4 nM
IC50 [3]: > 1000 nM
IC50 [4]: 230 nM
IC50 [5]: 88.8 nM
IC50 [6]: 1000 nM
viability, T/C [7]: 89.3%
viability, T/C [8]: 151%
viability, T/C [9]: 76.5%
viability, T/C [10]: 54.6%
viability, T/C [11]: 52.6%
viability, T/C [12]: 39%
viability, T/C [13]: 113%
viability, T/C [14]: 149%
viability, T/C [15]: 84.9%
viability, T/C [16]: 48%
viability, T/C [17]: 50.5%
viability, T/C [18]: 44.8%
viability, T/C [19]: 148%
viability, T/C [20]: 160%
viability, T/C [21]: 77.1%
viability, T/C [22]: 59.4%
viability, T/C [23]: 48.9%
viability, T/C [24]: 49%
viability, T/C [25]: 156%
viability, T/C [26]: 134%
viability, T/C [27]: 89.5%
viability, T/C [28]: 58.1%
viability, T/C [29]: 47.5%
viability, T/C [30]: 46.3%
viability, T/C [31]: 139%
viability, T/C [32]: 134%
viability, T/C [33]: 72.7%
viability, T/C [34]: 46.4%
viability, T/C [35]: 52.7%
viability, T/C [36]: 41.5%
viability, T/C [37]: 153%
viability, T/C [38]: 142%
viability, T/C [39]: 82.3%
viability, T/C [40]: 58.3%
viability, T/C [41]: 55.3%
viability, T/C [42]: 45.6%

Structure (SMILES): Nc1ccn(C2OC(CO)C(O)C2(F)F)c(=O)n1 (stereo unspecified) + C#Cc1c(F)ccc2cc(O)cc(-c3ncc4c(N5CC6CCC(C5)N6)nc(OCC56CCCN5CC(F)C6)nc4c3F)c12
IC50 [3]: 92.8 nM
IC50 [4]: 73.8 nM
IC50 [5]: 273 nM
IC50 [6]: 63.3 nM
IC50 [43]: 37.5 nM
IC50 [44]: 30.3 nM
viability, T/C [19]: 101%
viability, T/C [20]: 123%
viability, T/C [21]: 80.8%
viability, T/C [22]: 53.5%
viability, T/C [23]: 46.7%
viability, T/C [24]: 43.4%
viability, T/C [25]: 112%
viability, T/C [26]: 130%
viability, T/C [27]: 64%
viability, T/C [28]: 54.6%
viability, T/C [29]: 42.8%
viability, T/C [30]: 37.5%
viability, T/C [31]: 122%
viability, T/C [32]: 133%
viability, T/C [33]: 54.9%
viability, T/C [34]: 61.1%
viability, T/C [35]: 46.1%
viability, T/C [36]: 41.1%
viability, T/C [37]: 116%
viability, T/C [38]: 110%
viability, T/C [39]: 58.2%
viability, T/C [40]: 46%
viability, T/C [41]: 47.8%
viability, T/C [42]: 39%
viability, T/C (second compound 3.16 µM, first compound 0.00316 µM): 117%
viability, T/C (second compound 3.16 µM, first compound 0.01 µM): 99.2%
viability, T/C [45]: 51.1%
viability, T/C [46]: 43.5%
viability, T/C [47]: 41%
viability, T/C [48]: 45.7%
viability, T/C (second compound 10 µM, first compound 0.00316 µM): 82%
viability, T/C (second compound 10 µM, first compound 0.01 µM): 85.8%
viability, T/C [49]: 48.6%
viability, T/C [50]: 47%
viability, T/C [51]: 48.8%
viability, T/C [52]: 44.9%
